The record followed here is ChEMBL document CHEMBL1201862, “PubChem BioAssay data set” (2004).

Experiment in all cases: growth of human tumour cells (NCI), 48 h
The test system of assay [1] is Hs-578T.
In assay [2] the test system is MOLT-4.
Assay [3] relates to HCT-15.
Assay [4] concerns TK-10.
The test system of assay [5] is DU-145.
Assay [6] concerns NCI-H226.
Assay [7] concerns PC-3.
Assay [8] has as its system K562.
The subject of assay [9] is SF-268.
The subject of assay [10] is SK-MEL-2.
Assay [11] relates to Malme-3M.
The subject of assay [12] is 786-0.
Assay [13] relates to OVCAR-3.
The test system of assay [14] is SF-539.
In assay [15] the test system is NCI-H522.
The subject of assay [16] is A498.
Assay [17] relates to OVCAR-8.
Assay [18] relates to CAKI-1.
The subject of assay [19] is MDA-MB-435.
Assay [20] has as its system HCC 2998.

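Values below derive from 48-hour exposures of cells grown in 96-well plates, with endpoints linearly interpolated between the two concentrations bracketing the appropriate inhibition level. Abbreviation: GI50, concentration required for 50% inhibition of growth.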 Active and inactive are the calls of the source. No stated cut-off is given here; in the data, active = GI50 up to about 1.1 µM and inactive = higher. Where only a bound is given, the exact number is not on record here.

Turning to `O=C(O)c1ccc(SSc2ccc(C(=O)O)cn2)nc1`, the GI50 in assay [1] was > 100 µM (inactive); in assay [2], > 100 µM (inactive); in assay [3] it was more than 100 µM; in assay [4], > 100 µM (inactive); in assay [5], > 100 µM (inactive); in assay [6] it was 72.3 µM (inactive). Further, the GI50 in assay [7], in assay [8], in assay [9], in assay [10], in [11] and in assay [12] was > 100 µM (inactive) throughout. Moreover, the GI50 in [13], in assay [14], in assay [15], in assay [16], in assay [17] and in assay [18] was > 100 µM (inactive) throughout. The GI50 in [19] was > 100 µM (inactive).
`O=C1OC(c2ccccc2)N(C(=O)c2ccccc2)C1Cc1ccc(OCc2ccccc2)cc1` (stereo unspecified): the GI50 in assay [1] was 35.6 µM (inactive); in assay [3] it was more than 100 µM; in [4] it was 43.9 µM (inactive); in [5], > 100 µM (inactive); in [6] it was > 100 µM (inactive); in assay [7], 34.8 µM (inactive). Further, the GI50 was > 100 µM (inactive) in [8]; 21.8 µM (inactive) in assay [20]; 10.1 µM (inactive) in [9]; 31.1 µM (inactive) in assay [10]; 33.1 µM (inactive) in [12]; > 100 µM (inactive) in assay [14]. The GI50 in [16] is 4.67 µM (inactive); in [17] it was 94.8 µM (inactive); in [19], > 100 µM (inactive).
For `CN(C)/C=N/c1c2ccccc2nc2ccccc12`, the GI50 in assay [1] was 2.01 µM (inactive); in [2], 2.59 µM (inactive); in [3], 8.13 µM; in assay [4], 7.16 µM (inactive); in assay [5] it was 4.83 µM (inactive); in [6], 1.75 µM (inactive). Also, the GI50 in [7] is 2.98 µM (inactive); in [8], 4.47 µM (inactive); in assay [9], 3.35 µM (inactive); in assay [10], 2.69 µM (inactive); in [11], 3.23 µM (inactive); in assay [12] it was 5.14 µM (inactive). The GI50 in [13] was 3.05 µM (inactive); in [14], 2.78 µM (inactive); in assay [15] it was 2.01 µM (inactive); in assay [16] it was 8 µM (inactive); in assay [17], 3.92 µM (inactive); in assay [18], 18 µM (inactive). Besides, in assay [19], the GI50 was 4.21 µM (inactive).
Take `C=C1CC(O)C2C(=C)C(=O)OC2C2C(C)C(=O)CC12` (stereo unspecified): the GI50 is 19.1 µM (inactive) in assay [1]; 7.03 µM (inactive) in assay [2]; 4.82 µM in [3]; 4.82 µM (inactive) in assay [4]; 15.3 µM (inactive) in assay [5]; 36.6 µM (inactive) in assay [7]. The GI50 in assay [8] was 5.98 µM (inactive); in [20], 20 µM (inactive); in [9], 22.2 µM (inactive); in [10], 18.9 µM (inactive); in assay [11] it was 12 µM (inactive); in [12] it was > 10 µM (inactive). Besides, the GI50 is 11.6 µM (inactive) in assay [13]; 19.7 µM (inactive) in assay [14]; 5.16 µM (inactive) in assay [15]; 29.4 µM (inactive) in assay [16]; 21.3 µM (inactive) in assay [17]; 4.57 µM (inactive) in assay [18]. In [19], the GI50 is 11.3 µM (inactive).
With `CCOC(=O)c1nc2cc(C(F)(F)F)ccc2nc1Nc1ccc(OC)c(OC)c1`, the GI50 in assay [1] was 41.7 µM (inactive); in assay [2], > 100 µM (inactive); in assay [3], more than 100 µM; in assay [4], > 100 µM (inactive); in [5], > 100 µM (inactive); in assay [7], > 100 µM (inactive). Also, the GI50 in [8], in assay [20], in assay [9], in assay [11], in assay [12] and in [13] was > 100 µM (inactive) in each case. For the same compound, the GI50 in [14], in [15], in assay [16], in [17], in [18] and in assay [19] was > 100 µM (inactive) throughout.
As to `CNc1cc(OCc2ccccc2)c(OC)cc1C(=O)N1CCC[C@H]1CO`, the GI50 in assay [1] is > 100 µM (inactive); in assay [2], > 100 µM (inactive); in [3], more than 100 µM; in [4] it was > 100 µM (inactive); in [5], > 100 µM (inactive); in assay [6] it was > 100 µM (inactive). Further, the GI50 in assay [7], in assay [9], in [10], in assay [11], in [12] and in assay [14] was > 100 µM (inactive) in each case. For the same compound, the GI50 is 73.8 µM (inactive) in [15]; > 100 µM (inactive) in assay [16]; > 100 µM (inactive) in assay [17]; > 100 µM (inactive) in [18]; > 100 µM (inactive) in [19].
Turning to `O=c1cc(NNc2cccc(F)c2)[nH]c(=S)[nH]1`, the GI50 is > 100 µM (inactive) in assay [1]; 54.1 µM in assay [3]; > 100 µM (inactive) in assay [4]; > 100 µM (inactive) in assay [5]; > 100 µM (inactive) in assay [6]; > 100 µM (inactive) in assay [7]. Further, the GI50 was 61.4 µM (inactive) in assay [8]; 63.4 µM (inactive) in assay [20]; 1.97 µM (inactive) in assay [9]; > 100 µM (inactive) in assay [11]; 44.3 µM (inactive) in [12]; 26.9 µM (inactive) in assay [13]. Besides, the GI50 in assay [14], in [16], in assay [17] and in assay [19] was > 100 µM (inactive) in each case.
Consider `CCCCCC[C@H]1CC(=O)C2CCCC[C@@]23CC[C@H](CCl)N13.CCCCCC[C@H]1CC(=O)C2CCCC[C@@]23C[C@H](Cl)CN13` (stereo partly specified), for which the GI50 was 8.53 µM (inactive) in [1]; 10 µM (inactive) in [2]; 60.3 µM in [3]; 43.9 µM (inactive) in [4]; 61 µM (inactive) in assay [5]; 23.3 µM (inactive) in assay [7]. For the same compound, the GI50 in assay [8] is 28.6 µM (inactive); in assay [20], > 100 µM (inactive); in [9], 65.2 µM (inactive); in assay [10], > 100 µM (inactive); in assay [11], 55.3 µM (inactive); in assay [12] it was > 100 µM (inactive). Also, the GI50 is 25.1 µM (inactive) in assay [13]; 69.5 µM (inactive) in [14]; 17.9 µM (inactive) in assay [15]; > 100 µM (inactive) in [16]; 25.4 µM (inactive) in assay [17]; 58.9 µM (inactive) in assay [18]. Besides, the GI50 in [19] was 57.8 µM (inactive).
On to `O=C1/C(=C/c2ccc(Cl)cc2)N=C(c2ccccc2)N1c1nc2c(Cl)cc(Cl)cc2s1`, for which the GI50 in assay [1] is 31.5 µM (inactive); in assay [2], 2.28 µM (inactive); in [3], 32.4 µM; in [4] it was 42.1 µM (inactive); in assay [5], 33.7 µM (inactive); in assay [7] it was 18.5 µM (inactive). In addition, the GI50 in [8] was 25.1 µM (inactive); in assay [20] it was 40.2 µM (inactive); in assay [9] it was 43.9 µM (inactive); in assay [10], 20.8 µM (inactive); in assay [12], 31.8 µM (inactive); in assay [13], 19.8 µM (inactive). The GI50 in [14] is 22.3 µM (inactive); in assay [16] it was 18.2 µM (inactive); in assay [17], 31.9 µM (inactive); in assay [18], 36.5 µM (inactive); in assay [19], 24.7 µM (inactive).
Turning to `NC(N)=NCc1ccc2c(c1)OCO2`, the GI50 in assay [1] was > 100 µM (inactive); in assay [2], > 100 µM (inactive); in assay [3], more than 100 µM; in assay [4], > 100 µM (inactive); in assay [5], > 100 µM (inactive); in assay [7], > 100 µM (inactive). Besides, the GI50 in assay [8] is > 100 µM (inactive); in assay [20], > 100 µM (inactive); in [9], > 100 µM (inactive); in [10], > 100 µM (inactive); in [11], 31.1 µM (inactive); in assay [12], 50.1 µM (inactive). Moreover, the GI50 in assay [13] was 97.3 µM (inactive); in assay [14], 42.7 µM (inactive); in assay [15] it was > 100 µM (inactive); in assay [16], 28.2 µM (inactive); in assay [18], 44.9 µM (inactive); in [19], 73.1 µM (inactive).
Turning to `C/C=C(/C)C(=O)O[C@H]1CCN2CC=C(COC(=O)[C@@](O)([C@H](C)OC)C(C)(C)O)[C@H]12`, the GI50 in assay [1] was > 100 µM (inactive); in assay [2] it was > 100 µM (inactive); in assay [3] it was more than 100 µM; in assay [4], > 100 µM (inactive); in assay [5], > 100 µM (inactive); in [6] it was > 100 µM (inactive). The GI50 in assay [7], in assay [8], in assay [20], in assay [9], in [10] and in assay [12] was > 100 µM (inactive) each time. The GI50 in assay [13], in assay [14], in assay [15], in [16], in assay [17] and in assay [18] was > 100 µM (inactive) in each case. In assay [19], the GI50 was > 100 µM (inactive).
